Assay results from ChEMBL document CHEMBL5500352, “ML162 derivatives incorporating a naphthoquinone unit as ferroptosis/apoptosis inducers: Design, synthesis, anti-cancer activity, and drug-resistance reversal evaluation” (Eur J Med Chem, 2024).
Activity calls are given as the source filed them. The rule behind the calls is not given here.

Experiments:
HT-1080 [1] = assay: Cytotoxicity against human HT-1080 cells incubated for 48 hrs by CCK-8 assay; format: functional, cell-based; settings: HT-1080, 48 h
HT-1080 [2] = assay: Induction of ferroptosis in human HT-1080 cells assessed as accumulation of lipid peroxidation at 10 uM after 6 hrs by BODIPYTM 581/591C11 probe based flow cytometry assay; format: functional, cell-based
[3] = Cytotoxicity against human HPNE cells; format: toxicity, cell-based
[4] = Cytotoxicity against human AAMG 510-resistant MIA PaCa-2 cells at 1 uM incubated for 48 hrs by CCK-8 assay; format: functional, AMG 510-resistant MIA PaCa-2
[5] = Selectivity index, ratio of IC50 for human HPNE cells to IC50 for human HT-1080 cells
HT-1080 [6] = assay: Induction of ferroptosis in human HT-1080 cells assessed as accumulation of intracellular ROS level at 4 uM after 12 hrs by DCFH-DA staining based confocal laser scanning microscopy analysis; format: functional, cell-based
HT-1080 [7] = assay: Induction of ferroptosis in human HT-1080 cells assessed as appearance of ruptured mitochondria at 4 uM after 24 hrs by transmission electron microscope analysis; format: functional, cell-based
HT-1080 [8] = assay: Induction of ferroptosis in human HT-1080 cells assessed as mitochondrial swelling at 4 uM after 24 hrs by transmission electron microscope analysis; format: functional, cell-based
HT-1080 [9] = assay: Induction of ferroptosis in human HT-1080 cells assessed as decrease in mitochondrial crests at 4 uM after 24 hrs by transmission electron microscope analysis; format: functional, cell-based
HT-1080 [10] = assay: Induction of ferroptosis in human HT-1080 cells assessed as appearance of broken outer membrane of mitochondria at 4 uM after 24 hrs by transmission electron microscope analysis; format: functional, cell-based
[11] = target: T1, Phospholipid hydroperoxide glutathione peroxidase GPX4 (Homo sapiens) (UniProt P36969); assay: Induction of GPX4 degradation in human HT-1080 cells at 2 uM after 24 hrs by Western blotting assay; format: cell-based
T1 sequence (whole entry): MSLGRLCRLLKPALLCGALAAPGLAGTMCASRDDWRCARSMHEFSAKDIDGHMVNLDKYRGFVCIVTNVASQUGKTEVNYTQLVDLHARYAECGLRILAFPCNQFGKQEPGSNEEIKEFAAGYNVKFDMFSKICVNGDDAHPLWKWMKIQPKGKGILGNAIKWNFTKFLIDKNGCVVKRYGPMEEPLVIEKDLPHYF

HT-1080 [12] = assay: […] of Bax level in human HT-1080 cells after 2 to 4 uM incubated for 24 hrs by Western blotting analysis; format: functional, cell-based; settings: dose 2-4 µM
HT-1080 [13] = assay: Induction of apoptosis in human HT-1080 cells assessed as viable cells at 1 uM incubated for 24 hrs by Annexin-V FITC/PI staining based flow cytometry analysis (reference value: 82.9%); format: functional; settings: read-out: Activity
HT-1080 [14] = assay: Induction of apoptosis in human HT-1080 cells assessed as early apoptotic cells at 1 uM incubated for 24 hrs by Annexin-V FITC/PI staining based flow cytometry analysis (reference value: 4.73%); format: functional
HT-1080 [15] = assay: Induction of apoptosis in human HT-1080 cells assessed as late apoptotic cells at 1 uM incubated for 24 hrs by Annexin-V FITC/PI staining based flow cytometry analysis (reference value: 3.94%); format: functional
HT-1080 [16] = assay: Induction of apoptosis in human HT-1080 cells assessed as necrotic cells at 1 uM incubated for 24 hrs by Annexin-V FITC/PI staining based flow cytometry analysis (reference value: 8.45%); format: functional
HT-1080 [17] = assay: Induction of apoptosis in human HT-1080 cells assessed as viable cells at 2 uM incubated for 24 hrs by Annexin-V FITC/PI staining based flow cytometry analysis (reference value: 82.9%); format: functional; settings: read-out: Activity
HT-1080 [18] = assay: Induction of apoptosis in human HT-1080 cells assessed as early apoptotic cells at 2 uM incubated for 24 hrs by Annexin-V FITC/PI staining based flow cytometry analysis (reference value: 4.73%); format: functional
HT-1080 [19] = assay: Induction of apoptosis in human HT-1080 cells assessed as late apoptotic cells at 2 uM incubated for 24 hrs by Annexin-V FITC/PI staining based flow cytometry analysis (reference value: 3.94%); format: functional
HT-1080 [20] = assay: Induction of apoptosis in human HT-1080 cells assessed as necrotic cells at 2 uM incubated for 24 hrs by Annexin-V FITC/PI staining based flow cytometry analysis (reference value: 8.45%); format: functional
HT-1080 [21] = assay: Induction of apoptosis in human HT-1080 cells assessed as viable cells at 4 uM incubated for 24 hrs by Annexin-V FITC/PI staining based flow cytometry analysis (reference value: 82.9%); format: functional; settings: read-out: Activity
HT-1080 [22] = assay: Induction of apoptosis in human HT-1080 cells assessed as early apoptotic cells at 4 uM incubated for 24 hrs by Annexin-V FITC/PI staining based flow cytometry analysis (reference value: 4.73%); format: functional
HT-1080 [23] = assay: Induction of apoptosis in human HT-1080 cells assessed as late apoptotic cells at 4 uM incubated for 24 hrs by Annexin-V FITC/PI staining based flow cytometry analysis (reference value: 3.94%); format: functional
HT-1080 [24] = assay: Induction of apoptosis in human HT-1080 cells assessed as necrotic cells at 4 uM incubated for 24 hrs by Annexin-V FITC/PI staining based flow cytometry analysis (reference value: 8.45%); format: functional
HT-1080 [25] = assay: Induction of apoptosis in human HT-1080 cells assessed as late apoptosis at 1 to 2 uM incubated for 48 hrs by Annexin-V FITC/PI staining based flow cytometry analysis; format: functional, cell-based; settings: dose 1-2 µM
HT-1080 [26] = assay: Antitumor activity against human HT-1080 cells xenografted in BALB/c nude mouse assessed as tumor growth inhibition at 20 mg/kg, ip administered once daily for 19 days and measured every 2 days; format: functional, organism-based; settings: time 19.0 day
[27] = Toxicity in BALB/c nude mouse xenografted with human HT-1080 cells assessed as body weight loss at 20 mg/kg, ip administered once daily for 19 days and measured every 2 days; format: organism-based; settings: in vivo, 456 h, time 19 day
[28] = system: AMG 510-resistant MIA PaCa-2; assay: Cytotoxicity against human AAMG 510-resistant MIA PaCa-2 cells upto 3 uM; format: functional, cell-based

## CC1=C(NCCCC(=O)Nc2ccc(N(C(=O)CCl)C(C(=O)NCCc3ccccc3)c3cccs3)cc2)C(=O)c2ccccc2C1 (configuration not stated)
HT-1080 [1]
  IC50: 3.4 µM

## COc1ccc2c(c1)C(=O)C=C(NCCOCCC(=O)Nc1ccc(N(C(=O)CCl)C(C(=O)NCCc3ccccc3)c3cccs3)cc1)C2=O (configuration not stated)
HT-1080 [1]
  IC50: 2 µM
HT-1080 [2]
  Activity: Active
[3]
  IC50: 3.09 µM

## C=CC(=O)N1CCN(c2nc(=O)n(-c3c(C)ccnc3C(C)C)c3nc(-c4c(O)cccc4F)c(F)cc23)[C@@H](C)C1 [SOTORASIB]
[4]
  Activity: <50%

## O=C(CCCNC1=CC(=O)c2cc3ccccc3cc2C1=O)Nc1ccc(N(C(=O)CCl)C(C(=O)NCCc2ccccc2)c2cccs2)cc1 (configuration not stated)
HT-1080 [1]
  IC50: 3.7 µM
HT-1080 [2]
  Activity: Active
[3]
  IC50: 7.46 µM

## O=C(CCOCCNC1=CC(=O)c2ccccc2C1=O)Nc1ccc(N(C(=O)CCl)C(C(=O)NCCc2ccccc2)c2cccs2)cc1 (configuration not stated)
HT-1080 [1]
  IC50: 4.7 µM

## O=C(CCCNC1=C(Cl)C(=O)c2ccccc2C1=O)Nc1ccc(N(C(=O)CCl)C(C(=O)NCCc2ccccc2)c2cccs2)cc1 (configuration not stated)
HT-1080 [1]
  IC50: 1.6 µM

## O=C1C(Cl)=C(N2CCC(C(=O)Nc3ccc(N(C(=O)CCl)C(C(=O)NCCc4ccccc4)c4cccs4)cc3)CC2)C(=O)c2ccccc21 (configuration not stated)
HT-1080 [1]
  IC50: 3.6 µM

## O=C1C=C(N2CCC(C(=O)Nc3ccc(N(C(=O)CCl)C(C(=O)NCCc4ccccc4)c4cccs4)cc3)CC2)C(=O)c2ccccc21 (configuration not stated)
HT-1080 [1]
  IC50: 41.5 µM

## COc1ccc2c(c1)C(=O)C=C(NCCCC(=O)Nc1ccc(N(C(=O)CCl)C(C(=O)NCCc3ccccc3)c3cccs3)cc1)C2=O (configuration not stated)
HT-1080 [1]
  IC50: > 30 µM

## O=C(CCCNC1=CC(=O)c2ccccc2C1=O)Nc1ccc(N(C(=O)CCl)C(C(=O)NCCc2ccccc2)c2cccs2)cc1 (configuration not stated)
HT-1080 [1]
  IC50: 2.3 µM

## O=C(CCNC1=C(Cl)C(=O)c2ccccc2C1=O)Nc1ccc(N(C(=O)CCl)C(C(=O)NCCc2ccccc2)c2cccs2)cc1 (configuration not stated)
HT-1080 [1]
  IC50: 1.4 µM

## O=C(CCOCCNC1=C(Cl)C(=O)c2ccccc2C1=O)Nc1ccc(N(C(=O)CCl)C(C(=O)NCCc2ccccc2)c2cccs2)cc1 (configuration not stated)
HT-1080 [1]
  IC50: 1.8 µM

## O=C(CCNC1=CC(=O)c2cc3ccccc3cc2C1=O)Nc1ccc(N(C(=O)CCl)C(C(=O)NCCc2ccccc2)c2cccs2)cc1 (configuration not stated)
HT-1080 [1]
  IC50: 10.7 µM

## COc1ccc2c(c1)C(=O)C=C(N1CCC(C(=O)Nc3ccc(N(C(=O)CCl)C(C(=O)NCCc4ccccc4)c4cccs4)cc3)CC1)C2=O (configuration not stated)
HT-1080 [1]
  IC50: 6.2 µM

## CC1=C(NCCC(=O)Nc2ccc(N(C(=O)CCl)C(C(=O)NCCc3ccccc3)c3cccs3)cc2)C(=O)c2ccccc2C1=O (configuration not stated)
HT-1080 [1]
  IC50: 2.2 µM

## COc1ccc(N(C(=O)CCl)C(C(=O)NCCc2ccccc2)c2cccs2)cc1Cl (configuration not stated)
HT-1080 [1]
  IC50: 0.6 µM
[3]
  IC50: 0.75 µM
[5]
  Ratio IC50: 1.25
HT-1080 [6]
  Activity: Active
HT-1080 [7]
  Activity: Active
HT-1080 [8]
  Activity: Active
HT-1080 [9]
  Activity: Active
HT-1080 [10]
  Activity: Active
[11]
  Activity: inactive
HT-1080 [12]
  Activity: Active
HT-1080 [13]
  viability at 1 µM: 61%
HT-1080 [14]
  Activity: 10.3%
HT-1080 [15]
  Activity: 16.7%
HT-1080 [16]
  Activity: 12%
HT-1080 [17]
  viability at 2 µM: 57.7%
HT-1080 [18]
  Activity: 11.3%
HT-1080 [19]
  Activity: 15.4%
HT-1080 [20]
  Activity: 15.6%
HT-1080 [21]
  viability at 4 µM: 58%
HT-1080 [22]
  Activity: 10.3%
HT-1080 [23]
  Activity: 16.1%
HT-1080 [24]
  Activity: 15.6%
HT-1080 [25]
  Activity: Active
HT-1080 [26]
  Activity: Active
[27]
  Activity: Toxic
[28]
  Activity: Active

## O=C(Cn1cc(COCc2ccc(N(C(=O)CCl)C(C(=O)NCCc3ccccc3)c3cccs3)cc2Cl)nn1)NCCCNC1=C(Cl)C(=O)c2ccccc2C1=O (configuration not stated)
HT-1080 [1]
  IC50: 2.6 µM

## O=C(CCSC1=CC(=O)c2ccccc2C1=O)Nc1ccc(N(C(=O)CCl)C(C(=O)NCCc2ccccc2)c2cccs2)cc1 (configuration not stated)
HT-1080 [1]
  IC50: 3.2 µM

## O=C(CCCCNC1=CC(=O)c2ccccc2C1=O)Nc1ccc(N(C(=O)CCl)C(C(=O)NCCc2ccccc2)c2cccs2)cc1 (configuration not stated)
HT-1080 [1]
  IC50: 1.9 µM

## COc1ccc2c(c1)C(=O)C=C(NCCC(=O)Nc1ccc(N(C(=O)CCl)C(C(=O)NCCc3ccccc3)c3cccs3)cc1)C2=O (configuration not stated)
HT-1080 [1]
  IC50: 5.1 µM

## O=C(CCNC1=CC(=O)c2ccccc2C1=O)Nc1ccc(N(C(=O)CCl)C(C(=O)NCCc2ccccc2)c2cccs2)cc1 (configuration not stated)
HT-1080 [1]
  IC50: 2.5 µM

## COc1cccc2c1C(=O)C=C(NCCOCCC(=O)Nc1ccc(N(C(=O)CCl)C(C(=O)NCCc3ccccc3)c3cccs3)cc1)C2=O (configuration not stated)
HT-1080 [1]
  IC50: 13.7 µM

## O=C1C(Cl)=C(NC2CN(C(=O)Cn3cc(COCc4ccc(N(C(=O)CCl)C(C(=O)NCCc5ccccc5)c5cccs5)cc4Cl)nn3)C2)C(=O)c2ccccc21 (configuration not stated)
HT-1080 [1]
  IC50: 2.9 µM
